“And” between values parts separate entries of the source, which are not always exact repeats. Equal values may be shown once.
Key:
[1] = target: T1, Gamma-aminobutyric acid receptor subunit alpha-2 (Homo sapiens, UniProt P47869)
T1 sequence (P47869 whole entry): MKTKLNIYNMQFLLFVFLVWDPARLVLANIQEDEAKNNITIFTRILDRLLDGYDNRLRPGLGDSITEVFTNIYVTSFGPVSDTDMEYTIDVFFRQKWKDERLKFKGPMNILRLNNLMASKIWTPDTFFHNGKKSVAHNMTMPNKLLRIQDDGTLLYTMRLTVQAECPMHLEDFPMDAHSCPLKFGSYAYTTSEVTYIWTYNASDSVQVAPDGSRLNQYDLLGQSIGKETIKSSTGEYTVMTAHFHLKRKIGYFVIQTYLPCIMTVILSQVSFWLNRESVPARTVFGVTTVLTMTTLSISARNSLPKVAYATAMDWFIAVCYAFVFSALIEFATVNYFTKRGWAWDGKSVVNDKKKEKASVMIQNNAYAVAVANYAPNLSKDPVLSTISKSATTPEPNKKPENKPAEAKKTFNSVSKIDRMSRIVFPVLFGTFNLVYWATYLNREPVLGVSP

[2] = target: T2, Gamma-aminobutyric acid receptor subunit alpha-3 (Homo sapiens, UniProt P34903)
T2 sequence (P34903 whole entry): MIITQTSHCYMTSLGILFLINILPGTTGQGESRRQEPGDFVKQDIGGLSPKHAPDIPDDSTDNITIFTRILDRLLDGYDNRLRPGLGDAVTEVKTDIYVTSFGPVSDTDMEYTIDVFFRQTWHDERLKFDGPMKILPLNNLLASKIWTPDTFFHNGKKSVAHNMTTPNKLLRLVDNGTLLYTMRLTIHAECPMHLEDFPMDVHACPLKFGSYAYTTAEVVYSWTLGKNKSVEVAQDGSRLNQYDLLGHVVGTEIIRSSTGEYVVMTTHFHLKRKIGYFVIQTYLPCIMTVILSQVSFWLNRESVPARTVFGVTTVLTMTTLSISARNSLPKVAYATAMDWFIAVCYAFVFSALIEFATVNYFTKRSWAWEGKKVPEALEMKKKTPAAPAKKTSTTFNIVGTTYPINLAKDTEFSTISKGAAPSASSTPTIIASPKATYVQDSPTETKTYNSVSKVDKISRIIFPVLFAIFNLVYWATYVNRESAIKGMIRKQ

[3] = target: T3, Gamma-aminobutyric acid receptor subunit alpha-1 (Homo sapiens, UniProt P14867)
T3 sequence (P14867 whole entry): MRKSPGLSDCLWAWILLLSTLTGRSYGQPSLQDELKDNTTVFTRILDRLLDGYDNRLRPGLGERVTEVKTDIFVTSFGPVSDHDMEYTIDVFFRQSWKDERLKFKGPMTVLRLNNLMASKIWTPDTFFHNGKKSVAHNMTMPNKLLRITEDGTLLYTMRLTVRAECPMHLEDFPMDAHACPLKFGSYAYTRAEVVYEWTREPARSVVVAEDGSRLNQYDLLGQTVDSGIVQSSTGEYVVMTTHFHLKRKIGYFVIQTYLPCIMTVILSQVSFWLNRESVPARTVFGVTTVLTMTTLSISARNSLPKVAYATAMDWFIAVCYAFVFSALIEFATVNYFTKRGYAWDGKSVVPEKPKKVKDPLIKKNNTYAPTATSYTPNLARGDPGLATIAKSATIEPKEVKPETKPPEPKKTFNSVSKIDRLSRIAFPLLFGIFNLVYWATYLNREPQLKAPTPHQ

SMILES | Ki [1] | Ki [2] | Ki [3]
O=C1CN=C(c2ccccc2Cl)c2cc([N+](=O)[O-])ccc2N1 [5-(2-chlorophenyl)-7-nitro-1,3-dihydro-2H-1,4-benzodiazepin-2-one] | 1.7 nM | 2 nM | 1.27 nM
CCc1c(C(=O)OC)ncc2[nH]c3cc(OC)c(OC)cc3c12 [NSC_104999] | 14.4 nM | 10.6 nM | 5.3 nM
COC(=O)c1cc2c(cn1)[nH]c1ccccc12 | 2.9 nM | 4.1 nM | 0.78 nM
Cc1nnc2ccc(-c3cccc(C(F)(F)F)c3)nn12 | 2000 nM and 1740 nM | 1790 nM and 1620 nM | 405 nM and 108 nM
O=C1CN=C(c2ccccc2F)c2cc(Cl)ccc2N1CC(F)(F)F [NSC_93250] | 236 nM | 205 nM | 

From BindingDB's records for doi:10.1126/science.2551039 (UniversitÄT Heidelberg, 1989)
